From ChEMBL document CHEMBL1944630, “Indomethacin Analogues that Enhance Doxorubicin Cytotoxicity in Multidrug Resistant Cells without Cox Inhibitory Activity” (ACS Med Chem Lett, 2011) come the findings set out here.

Activity calls are given as the source filed them. The rule behind the calls is not given here. Bounds are passed on as bounds.

Broadly, the inhibition is how much of the control response was suppressed. Broadly, the IC50 is the point on the concentration scale where inhibition reaches its midpoint. A high value points to lower potency.

The target in data set [1] is T1, Prostaglandin G/H synthase 1 (Homo sapiens, UniProt P23219). The data set is described as follows: Inhibition of COX1 at 100 uM.
T1 sequence (P23219 whole entry): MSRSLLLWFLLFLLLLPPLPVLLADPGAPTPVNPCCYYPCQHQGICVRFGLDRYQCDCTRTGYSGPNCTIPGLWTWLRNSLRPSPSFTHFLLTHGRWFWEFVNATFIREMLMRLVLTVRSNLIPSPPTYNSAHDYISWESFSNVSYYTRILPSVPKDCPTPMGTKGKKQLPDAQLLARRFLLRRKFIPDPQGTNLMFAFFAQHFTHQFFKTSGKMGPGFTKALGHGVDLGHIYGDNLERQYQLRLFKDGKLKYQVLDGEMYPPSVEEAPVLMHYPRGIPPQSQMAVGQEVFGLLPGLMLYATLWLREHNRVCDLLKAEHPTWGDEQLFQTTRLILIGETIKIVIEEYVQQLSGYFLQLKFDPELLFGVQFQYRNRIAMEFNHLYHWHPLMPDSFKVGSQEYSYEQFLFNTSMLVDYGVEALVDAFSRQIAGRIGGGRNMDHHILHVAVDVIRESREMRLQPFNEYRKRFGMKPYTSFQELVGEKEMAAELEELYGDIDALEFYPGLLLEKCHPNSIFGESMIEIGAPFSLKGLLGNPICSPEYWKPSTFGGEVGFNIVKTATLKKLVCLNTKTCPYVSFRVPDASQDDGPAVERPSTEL
The target in data set [2] is T1, Prostaglandin G/H synthase 1. The data set can be described thus: Inhibition of COX1.
Data set [3] concerns T98G. The data set is described as follows: Cytotoxicity against multidrug-resistant human T98G cells expressing MRP-1 at 50 uM after 3 days by crystal violet staining analysis. It is filed as cell-based. Particulars: 72 h.
In data set [4] the target is T2, Prostaglandin G/H synthase 2 (Homo sapiens, UniProt P35354).
T2 sequence (P35354 whole entry): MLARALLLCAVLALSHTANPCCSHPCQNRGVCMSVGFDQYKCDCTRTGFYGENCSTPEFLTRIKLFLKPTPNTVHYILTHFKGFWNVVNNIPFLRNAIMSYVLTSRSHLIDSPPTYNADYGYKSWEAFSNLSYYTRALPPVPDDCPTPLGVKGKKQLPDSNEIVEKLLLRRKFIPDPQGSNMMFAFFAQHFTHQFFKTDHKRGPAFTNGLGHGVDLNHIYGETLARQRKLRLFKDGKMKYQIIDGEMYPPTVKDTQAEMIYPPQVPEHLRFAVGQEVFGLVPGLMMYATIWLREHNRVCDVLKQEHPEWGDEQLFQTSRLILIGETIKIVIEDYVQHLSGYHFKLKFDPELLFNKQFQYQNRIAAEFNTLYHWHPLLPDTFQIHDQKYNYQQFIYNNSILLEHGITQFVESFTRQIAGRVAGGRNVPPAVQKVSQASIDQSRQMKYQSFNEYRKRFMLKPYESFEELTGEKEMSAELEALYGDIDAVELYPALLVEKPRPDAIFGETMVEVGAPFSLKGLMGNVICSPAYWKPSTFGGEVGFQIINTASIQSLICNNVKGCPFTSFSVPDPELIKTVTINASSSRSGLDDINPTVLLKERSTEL
The data set can be described thus: Inhibition of COX2.

The subject of data set [5] is T98G. The data set can be described thus: Potentiation of doxorubicin-induced cytotoxicity against multidrug-resistant human T98G cells expressing MRP-1 at 50 uM pretreated for 2 hrs prior addition of doxorubicin measured after 3 days by crystal violet staining analysis. Format: functional, cell-based.

As to `CC(=O)Oc1ccccc1C(=O)O`, the inhibition in data set [1] was 38%.

Regarding `CCc1c(CC(=O)O)c2ccccc2n1C(=O)c1ccc(Cl)cc1`, the IC50 in data set [2] and in data set [4] was greater than 400 µM each time. Further, the Activity entry with T98G [3] is “Non-toxic”. For the same compound, the result in the data set on T98G [5] was Active. In data set [1], the inhibition was less than 0%.

With `O=C(O)Cc1c(-c2ccccc2)n(C(=O)c2ccc(Cl)cc2)c2ccccc12`, the IC50 in data set [2] and in data set [4] was greater than 400 µM each time. Also, the Activity result in the data set on T98G [3] was “Non-toxic”. Moreover, in the data set with T98G [5], the result was Active. For the same compound, the inhibition in data set [1] is less than 0%.

For `Cc1c(CC(=O)O)c2ccccc2n1C(=O)c1ccc(Cl)cc1`, the IC50 was 0.01 µM in data set [2] and 39 µM in data set [4]. For the same compound, the inhibition in data set [1] stood at 79%.
